Test system: MV-4-11 cells
Assay: Gene expression microarray analysis (Affymetrix PrimeView) and GSEA
Assay type: cell-based, human
Set-up: RFU PODN (11730768_x_at) / Fold change /veh PODN (11730768_x_at) / RFU LINC00158 (11744669_a_at) / Fold change /veh LINC00158 (11744669_a_at) / RFU DUSP10 (11751237_a_at) / Fold change /veh DUSP10 (11751237_a_at) / RFU ID3 (11757404_x_at) / Fold change /veh ID3 (11757404_x_at) / RFU PLEKHG5 (11737974_s_at) / Fold change /veh PLEKHG5 (11737974_s_at) / RFU LRRC4B (11730491_at) / Fold change /veh LRRC4B (11730491_at) / RFU GIMAP4 (11747438_a_at) / Fold change /veh GIMAP4 (11747438_a_at) / RFU KRT8 (11758183_x_at) / Fold change /veh KRT8 (11758183_x_at) / RFU CNN1 (11734310_a_at) / Fold change /veh CNN1 (11734310_a_at) / RFU VPS37D (11726825_at) / Fold change /veh VPS37D (11726825_at) / RFU C10orf10 (11716522_x_at) / Fold change /veh C10orf10 (11716522_x_at) / RFU KIR2DL2 /// KIR2DL4 /// KIR2DL5A /// KIR2DL5B /// KIR2DS1 /// KIR2DS2 /// KIR2DS3 /// KIR2DS4 /// KIR3DL3 /// KIR3DL3 /// KIR3DS1 (11738374_at) / Fold change /veh KIR2DL2 /// KIR2DL4 /// KIR2DL5A /// KIR2DL5B /// KIR2DS1 /// KIR2DS2 /// KIR2DS3 /// KIR2DS4 /// KIR3DL3 /// KIR3DL3 /// KIR3DS1 (11738374_at) / RFU C1QL1 (11718748_at) / Fold change /veh C1QL1 (11718748_at) / RFU TMPRSS4 (11747572_a_at) / Fold change /veh TMPRSS4 (11747572_a_at) / RFU HAMP (11756126_x_at) / Fold change /veh HAMP (11756126_x_at) / RFU RNFT2 (11725882_a_at) / Fold change /veh RNFT2 (11725882_a_at) / RFU NR4A2 (11747474_a_at) / Fold change /veh NR4A2 (11747474_a_at) / RFU ABCC12 (11746883_a_at) / Fold change /veh ABCC12 (11746883_a_at) / RFU TMEM136 (11760407_x_at) / Fold change /veh TMEM136 (11760407_x_at) / RFU CLDN22 /// WWC2 (11732394_at) / Fold change /veh CLDN22 /// WWC2 (11732394_at) / RFU HLA-DPB1 (11760878_x_at) / Fold change /veh HLA-DPB1 (11760878_x_at) / RFU SPINT1 (11716480_a_at) / Fold change /veh SPINT1 (11716480_a_at) / RFU GAP43 (11754022_s_at) / Fold change /veh GAP43 (11754022_s_at) / RFU A4GNT (11735810_at) / Fold change /veh A4GNT (11735810_at) / RFU PRB3 (11715151_x_at) / Fold change /veh PRB3 (11715151_x_at) / RFU TUBB4B (11761932_at) / Fold change /veh TUBB4B (11761932_at) / RFU CAPN14 (11732068_a_at) / Fold change /veh CAPN14 (11732068_a_at) / RFU TMCC2 (11721928_a_at) / Fold change /veh TMCC2 (11721928_a_at) / RFU IRGQ (11745062_a_at) / Fold change /veh IRGQ (11745062_a_at) / RFU FAM174B (11720279_a_at) / Fold change /veh FAM174B (11720279_a_at) / RFU TMPRSS4 (11748680_a_at) / Fold change /veh TMPRSS4 (11748680_a_at) / RFU FAM212B (11763350_a_at) / Fold change /veh FAM212B (11763350_a_at) / RFU PLEKHG5 (11743358_a_at) / Fold change /veh PLEKHG5 (11743358_a_at) / RFU ZSCAN30 (11745921_a_at) / Fold change /veh ZSCAN30 (11745921_a_at) / RFU CMKLR1 (11741424_a_at) / Fold change /veh CMKLR1 (11741424_a_at) / RFU LOC101060620 /// MAPK8IP1 (11723275_at) / Fold change /veh LOC101060620 /// MAPK8IP1 (11723275_at) / RFU SPTSSB (11747773_x_at) / Fold change /veh SPTSSB (11747773_x_at) / RFU PRSS12 (11739890_at) / Fold change /veh PRSS12 (11739890_at) / RFU BIN1 (11741810_x_at) / Fold change /veh BIN1 (11741810_x_at) / RFU WNT11 (11732464_a_at) / Fold change /veh WNT11 (11732464_a_at) / RFU C10orf10 (11716521_a_at) / Fold change /veh C10orf10 (11716521_a_at) / RFU C5orf56 (11738089_at) / Fold change /veh C5orf56 (11738089_at) / RFU CYB561 (11721691_x_at) / Fold change /veh CYB561 (11721691_x_at) / RFU ANKRD19P (11752326_a_at) / Fold change /veh ANKRD19P (11752326_a_at) / RFU OR2T12 /// OR2T33 /// OR2T8 (11738714_s_at) / Fold change /veh OR2T12 /// OR2T33 /// OR2T8 (11738714_s_at) / RFU VCAN (11748164_a_at) / Fold change /veh VCAN (11748164_a_at) / RFU JSRP1 (11732532_at) / Fold change /veh JSRP1 (11732532_at) / RFU KRTAP10-11 (11738290_x_at) / Fold change /veh KRTAP10-11 (11738290_x_at) / RFU MYO3A (11730013_a_at) / Fold change /veh MYO3A (11730013_a_at) / RFU EBF3 (11725865_a_at) / Fold change /veh EBF3 (11725865_a_at) / RFU CAMK2N1 (11719241_x_at) / Fold change /veh CAMK2N1 (11719241_x_at) / RFU C5orf56 (11738088_a_at) / Fold change /veh C5orf56 (11738088_a_at) / RFU OLFML3 (11715873_a_at) / Fold change /veh OLFML3 (11715873_a_at) / RFU LOC100653217 /// NTM (11731650_a_at) / Fold change /veh LOC100653217 /// NTM (11731650_a_at) / RFU MAPK11 (11762145_a_at) / Fold change /veh MAPK11 (11762145_a_at) / RFU FIZ1 (11724087_x_at) / Fold change /veh FIZ1 (11724087_x_at) / RFU OASL (11726364_x_at) / Fold change /veh OASL (11726364_x_at) / RFU SOX15 (11748057_x_at) / Fold change /veh SOX15 (11748057_x_at) / RFU CD79A (11719716_a_at) / Fold change /veh CD79A (11719716_a_at) / RFU HIST1H1D (11736915_at) / Fold change /veh HIST1H1D (11736915_at) / RFU CASKIN2 (11723855_a_at) / Fold change /veh CASKIN2 (11723855_a_at) / RFU LOC730098 (11760151_x_at) / Fold change /veh LOC730098 (11760151_x_at) / RFU OR4N2 (11742367_at) / Fold change /veh OR4N2 (11742367_at) / RFU PRRT2 (11749266_a_at) / Fold change /veh PRRT2 (11749266_a_at) / RFU SNX32 (11753110_a_at) / Fold change /veh SNX32 (11753110_a_at) / RFU CDHR5 (11726645_a_at) / Fold change /veh CDHR5 (11726645_a_at) / RFU RCAN1 (11760418_a_at) / Fold change /veh RCAN1 (11760418_a_at) / RFU FAM167A (11723789_a_at) / Fold change /veh FAM167A (11723789_a_at) / RFU FAM26E (11764081_at) / Fold change /veh FAM26E (11764081_at) / RFU ISYNA1 (11749810_s_at) / Fold change /veh ISYNA1 (11749810_s_at) / RFU ACY1 (11761880_at) / Fold change /veh ACY1 (11761880_at) / RFU 11764098_at / Fold change /veh 11764098_at / RFU SAMD14 (11745864_x_at) / Fold change /veh SAMD14 (11745864_x_at) / RFU NPB (11741838_a_at) / Fold change /veh NPB (11741838_a_at) / RFU TMPRSS6 (11731388_a_at) / Fold change /veh TMPRSS6 (11731388_a_at) / RFU KRTAP10-2 (11738614_at) / Fold change /veh KRTAP10-2 (11738614_at) / RFU ARHGAP8 /// PRR5-ARHGAP8 (11727945_x_at) / Fold change /veh ARHGAP8 /// PRR5-ARHGAP8 (11727945_x_at) / RFU KRTAP5-7 /// NADSYN1 (11734609_at) / Fold change /veh KRTAP5-7 /// NADSYN1 (11734609_at) / RFU RASL12 (11751679_a_at) / Fold change /veh RASL12 (11751679_a_at) / RFU CDKN2B (11736163_a_at) / Fold change /veh CDKN2B (11736163_a_at) / RFU PRF1 (11729649_at) / Fold change /veh PRF1 (11729649_at) / RFU, ZNF638 /// ZNF638-IT1 / Fold change vs veh, ZNF638 /// ZNF638-IT1 / RFU, PANK3 / Fold change vs veh, PANK3 / RFU, SH3YL1 / Fold change vs veh, SH3YL1 / RFU, ZEB2 / Fold change vs veh, ZEB2 / RFU, NRIP1 / Fold change vs veh, NRIP1 / RFU, PTTG1IP / Fold change vs veh, PTTG1IP / RFU, CAPN2 / Fold change vs veh, CAPN2 / RFU, MED14 / Fold change vs veh, MED14 / RFU, SNORA58 / Fold change vs veh, SNORA58 / RFU, C1orf63 / Fold change vs veh, C1orf63 / RFU, LRRFIP1 / Fold change vs veh, LRRFIP1 / RFU, NDUFAF7 / Fold change vs veh, NDUFAF7 / RFU, SLC12A2 / Fold change vs veh, SLC12A2 / RFU, IBTK / Fold change vs veh, IBTK / RFU, ESF1 / Fold change vs veh, ESF1 / Fold change vs veh, TMEM50B / RFU, TAOK1 / Fold change vs veh, TAOK1 / RFU, ACBD3 / Fold change vs veh, ACBD3 / RFU, TMA16 / Fold change vs veh, TMA16 / RFU, RWDD3 / Fold change vs veh, RWDD3 / RFU, BCAT1 / Fold change vs veh, BCAT1 / RFU, EDEM3 / Fold change vs veh, EDEM3 / RFU, TMEM33 / Fold change vs veh, TMEM33 / RFU, WDR75 / Fold change vs veh, WDR75 / RFU, AHCTF1 / Fold change vs veh, AHCTF1 / RFU, TFRC / Fold change vs veh, TFRC / RFU, ZDHHC17 / Fold change vs veh, ZDHHC17 / RFU, NOM1 / Fold change vs veh, NOM1 / RFU, ARL8B / Fold change vs veh, ARL8B / RFU, ZBTB11 / Fold change vs veh, ZBTB11 / RFU, TAMM41 / Fold change vs veh, TAMM41 / RFU, KIAA1704 /// LOC100996395 / Fold change vs veh, KIAA1704 /// LOC100996395 / RFU, ING1 / Fold change vs veh, ING1 / RFU, TRMT61B / Fold change vs veh, TRMT61B / RFU, FUBP3 / Fold change vs veh, FUBP3 / RFU, TP53 / Fold change vs veh, TP53 / RFU, TNKS2 / Fold change vs veh, TNKS2 / RFU, ZFP14 / Fold change vs veh, ZFP14 / RFU, ACTR2 / Fold change vs veh, ACTR2 / RFU, PPP3R1 / Fold change vs veh, PPP3R1 / RFU, PIK3R1 / Fold change vs veh, PIK3R1 / RFU, HNRNPA1 / Fold change vs veh, HNRNPA1 / RFU, RNF170 / Fold change vs veh, RNF170 / RFU, ZNF28 / Fold change vs veh, ZNF28 / RFU, RNGTT / Fold change vs veh, RNGTT / RFU, OGT / Fold change vs veh, OGT / RFU, BRD1 / Fold change vs veh, BRD1 / RFU, MARS / Fold change vs veh, MARS / RFU, ZNF655 / Fold change vs veh, ZNF655 / RFU, FAHD1 / Fold change vs veh, FAHD1 / RFU, BDP1 / Fold change vs veh, BDP1 / RFU, LRRCC1 / Fold change vs veh, LRRCC1 / RFU, ARID1A / Fold change vs veh, ARID1A / RFU, ZNF146 / Fold change vs veh, ZNF146 / RFU, ZNF330 / Fold change vs veh, ZNF330 / RFU, GPN3 / Fold change vs veh, GPN3 / RFU, C9orf123 / Fold change vs veh, C9orf123 / RFU, N4BP2L2 / Fold change vs veh, N4BP2L2 / RFU, ARFIP1 / Fold change vs veh, ARFIP1 / RFU, FAM179B / Fold change vs veh, FAM179B / RFU, BCL10 / Fold change vs veh, BCL10 / RFU, UHRF1BP1L / Fold change vs veh, UHRF1BP1L / RFU, BET1 / Fold change vs veh, BET1 / RFU, CNOT2 / Fold change vs veh, CNOT2 / RFU, ZNF268 / Fold change vs veh, ZNF268 / Fold change vs veh, ZNF507 / RFU, DGCR2 / Fold change vs veh, DGCR2 / RFU, WDSUB1 / Fold change vs veh, WDSUB1 / Fold change vs veh, HSP90B1 /// MIR3652 / RFU, ADSS / Fold change vs veh, ADSS / RFU, GK / Fold change vs veh, GK / RFU, ZNF148 / Fold change vs veh, ZNF148 / RFU, TAF9 / Fold change vs veh, TAF9 / RFU, SLC1A5 / Fold change vs veh, SLC1A5 / RFU, SLMO2 / Fold change vs veh, SLMO2 / RFU, ABCC4 / Fold change vs veh, ABCC4 / RFU, LOC101060439 /// RAP1B / Fold change vs veh, LOC101060439 /// RAP1B / RFU, RFX7 / Fold change vs veh, RFX7 / RFU, GTPBP10 / Fold change vs veh, GTPBP10 / RFU, CNEP1R1 / Fold change vs veh, CNEP1R1 / RFU, BIVM-ERCC5 /// ERCC5 / Fold change vs veh, BIVM-ERCC5 /// ERCC5 / RFU, ILF3 / Fold change vs veh, ILF3 / RFU 11762660_at / Fold change /veh 11762660_at / RFU VCAN (11757783_s_at) / Fold change /veh VCAN (11757783_s_at) / RFU DDX43 (11728927_at) / Fold change /veh DDX43 (11728927_at) / RFU KRT8 (11758188_x_at) / Fold change /veh KRT8 (11758188_x_at) / RFU NKD1 (11759106_at) / Fold change /veh NKD1 (11759106_at) / RFU SRD5A1 (11742802_a_at) / Fold change /veh SRD5A1 (11742802_a_at) / RFU TPSAB1 /// TPSB2 (11721975_s_at) / Fold change /veh TPSAB1 /// TPSB2 (11721975_s_at) / RFU GSTM3 (11746129_a_at) / Fold change /veh GSTM3 (11746129_a_at) / RFU IL23R (11737362_x_at) / Fold change /veh IL23R (11737362_x_at) / RFU TMEM51 (11727254_a_at) / Fold change /veh TMEM51 (11727254_a_at) / RFU PIWIL2 (11732686_x_at) / Fold change /veh PIWIL2 (11732686_x_at) / RFU ORM1 (11744905_x_at) / Fold change /veh ORM1 (11744905_x_at) / RFU CCDC152 (11743942_at) / Fold change /veh CCDC152 (11743942_at) / RFU ECM1 (11717891_a_at) / Fold change /veh ECM1 (11717891_a_at) / RFU IL23R (11748794_a_at) / Fold change /veh IL23R (11748794_a_at) / RFU TNFAIP8L3 (11732012_x_at) / Fold change /veh TNFAIP8L3 (11732012_x_at) / RFU MBOAT4 (11741988_at) / Fold change /veh MBOAT4 (11741988_at) / RFU 11764193_at / Fold change /veh 11764193_at / RFU TMEM53 (11763286_at) / Fold change /veh TMEM53 (11763286_at) / RFU MAGEB2 (11727129_at) / Fold change /veh MAGEB2 (11727129_at) / RFU TMEM200A (11744735_a_at) / Fold change /veh TMEM200A (11744735_a_at) / RFU CCDC152 (11751479_a_at) / Fold change /veh CCDC152 (11751479_a_at) / RFU FAM211A (11726209_a_at) / Fold change /veh FAM211A (11726209_a_at) / RFU RGS16 (11746705_a_at) / Fold change /veh RGS16 (11746705_a_at) / RFU VCAN (11755009_s_at) / Fold change /veh VCAN (11755009_s_at) / RFU RHOB (11743442_s_at) / Fold change /veh RHOB (11743442_s_at) / RFU RGS16 (11720943_a_at) / Fold change /veh RGS16 (11720943_a_at) / RFU RGS16 (11720944_at) / Fold change /veh RGS16 (11720944_at) / RFU, VPS4B / Fold change vs veh, VPS4B / RFU, CREB1 / Fold change vs veh, CREB1 / RFU, DNAJC13 / Fold change vs veh, DNAJC13 / RFU, GNAQ / Fold change vs veh, GNAQ / RFU, CDK5R1 / Fold change vs veh, CDK5R1 / RFU, ZRANB3 / Fold change vs veh, ZRANB3 / RFU, CUL4A / Fold change vs veh, CUL4A / RFU, CCNY / Fold change vs veh, CCNY / RFU, UFL1 / Fold change vs veh, UFL1 / RFU, COG3 / Fold change vs veh, COG3 / RFU, DIAPH2 / Fold change vs veh, DIAPH2 / RFU, SKA2 / Fold change vs veh, SKA2 / RFU, AFF3 / Fold change vs veh, AFF3 / RFU, LMF1 / Fold change vs veh, LMF1 / RFU, IPO11 / Fold change vs veh, IPO11 / RFU, DFFB / Fold change vs veh, DFFB / RFU, FOXP1 / Fold change vs veh, FOXP1 / RFU, CARD8 / Fold change vs veh, CARD8 / RFU, STRN3 / Fold change vs veh, STRN3 / RFU, ADK / Fold change vs veh, ADK / RFU, RASSF2 / Fold change vs veh, RASSF2 / RFU, WIPF1 / Fold change vs veh, WIPF1 / RFU, LARP1B / Fold change vs veh, LARP1B / RFU, RASA1 / Fold change vs veh, RASA1 / RFU, RB1 / Fold change vs veh, RB1 / RFU, PPFIA1 / Fold change vs veh, PPFIA1 / RFU, MAT2A / Fold change vs veh, MAT2A / RFU, CCT5 / Fold change vs veh, CCT5 / RFU, WDR92 / Fold change vs veh, WDR92 / RFU, CUX1 / Fold change vs veh, CUX1 / RFU, TTC7A / Fold change vs veh, TTC7A / RFU, TMEM135 / Fold change vs veh, TMEM135 / RFU, DEPTOR / Fold change vs veh, DEPTOR / RFU, CPM / Fold change vs veh, CPM / RFU, DNAJB6 / Fold change vs veh, DNAJB6 / RFU, CACNA2D3 / Fold change vs veh, CACNA2D3 / RFU, DTX4 / Fold change vs veh, DTX4 / RFU, TFCP2 / Fold change vs veh, TFCP2 / RFU, GMCL1 /// GMCL1P1 / Fold change vs veh, GMCL1 /// GMCL1P1 / RFU, AEBP2 / Fold change vs veh, AEBP2 / RFU, SNHG1 /// SNORD22 /// SNORD25 /// SNORD26 /// SNORD27 /// SNORD28 /// SNORD29 /// SNORD31 / Fold change vs veh, SNHG1 /// SNORD22 /// SNORD25 /// SNORD26 /// SNORD27 /// SNORD28 /// SNORD29 /// SNORD31 / Fold change (Aza/veh), C12orf56 (ProbeSet 11735607_a_at) / Fold change (ACY-1035/veh), C12orf56 (ProbeSet 11735607_a_at) / Fold change (Aza/veh), FGFR1OP (ProbeSet 11751329_s_at) / Fold change (ACY-1035/veh), FGFR1OP (ProbeSet 11751329_s_at) / Fold change (Aza/veh), VPS36 (ProbeSet 11739960_a_at) / Fold change (ACY-1035/veh), VPS36 (ProbeSet 11739960_a_at) / RFU SYPL1 (11715823_x_at) / Fold change /veh SYPL1 (11715823_x_at) / RFU IGFBP7 (11715501_s_at) / Fold change /veh IGFBP7 (11715501_s_at) / RFU REEP3 (11722064_at) / Fold change /veh REEP3 (11722064_at) / RFU IGLL1 (11728026_x_at) / Fold change /veh IGLL1 (11728026_x_at): dose or concentration left out as unconfirmed
Settings: MV-4-11 cells, 48 hours

## Nc1ccc(-c2cccs2)cc1NC(=O)c1ccc2c(c1)cc(C1CC1)n2CCN1CCOCC1 [ACY-1035]
  Fold change /veh 11764193_at: 1.19

— article PMC5218480 (PLoS ONE, 2017)
